Test results: publication PMC12624743 (ACS Infectious Diseases, 2025)

Assays:
[1] = molecular target: T1, N. gonorrhoeae gyrase GyrA^D95G (Neisseria gonorrhoeae, UniProt P48371, D95G); experiment: Gyrase-catalyzed DNA supercoiling assay, GyrA^D95G; format: biochemical
T1 construct: His; made in house
Procedure: All proteins were His-tagged. N. gonorrhoeae WT gyrase (GyrA, GyrB) and topoisomerase IV (ParC, ParE) subunits as well as mutant GyrA^D90N, GyrA^A92T, GyrA^S91F, and GyrA^S91F/D95G gyrase and ParC^D86N and ParC^S88P topoisomerase IV were prepared as described previously. , N. gonorrhoeae mutant GyrA^D95G gyrase and mutant ParC^S87N and ParC^E91G topoisomerase IV were generated using a QuickChange II XL site-directed mutagenesis kit (Agilent Technologies) with custom primers for the desired mutations. […] The identities of all constructs were confirmed by DNA sequencing, and all enzymes were stored at −80 °C. In all assays, N. gonorrhoeae gyrase or topoisomerase IV was used as a 1:1 GyrA:GyrB or ParC:ParE mixture, respectively, and the stated enzyme concentration reflects that of the holoenzyme (A2B2).
Samples were mixed with 2 μL of loading dye [60% sucrose, 10 mM Tris–HCl (pH 7.9), 0.5% bromophenol blue, and 0.5% xylene cyanol FF] and incubated at 45 °C for 2 min before being subjected to electrophoresis on 1% agarose gels in 100 mM Tris-borate (pH 8.3) and 2 mM EDTA. […] DNA bands were visualized with medium-range ultraviolet light and quantified using an Alpha Innotech digital imaging system (Protein Simple). DNA supercoiling was monitored by the conversion of relaxed to supercoiled plasmid.

[2] = molecular target: T2, N. gonorrhoeae topoisomerase IV ParC^S88P (Neisseria gonorrhoeae, UniProt P48374, S88P); experiment: Topoisomerase IV-catalyzed DNA decatenation assay, ParC^S88P; format: biochemical; set-up: His; made in house
T2 sequence (P48374 1-768 S88P): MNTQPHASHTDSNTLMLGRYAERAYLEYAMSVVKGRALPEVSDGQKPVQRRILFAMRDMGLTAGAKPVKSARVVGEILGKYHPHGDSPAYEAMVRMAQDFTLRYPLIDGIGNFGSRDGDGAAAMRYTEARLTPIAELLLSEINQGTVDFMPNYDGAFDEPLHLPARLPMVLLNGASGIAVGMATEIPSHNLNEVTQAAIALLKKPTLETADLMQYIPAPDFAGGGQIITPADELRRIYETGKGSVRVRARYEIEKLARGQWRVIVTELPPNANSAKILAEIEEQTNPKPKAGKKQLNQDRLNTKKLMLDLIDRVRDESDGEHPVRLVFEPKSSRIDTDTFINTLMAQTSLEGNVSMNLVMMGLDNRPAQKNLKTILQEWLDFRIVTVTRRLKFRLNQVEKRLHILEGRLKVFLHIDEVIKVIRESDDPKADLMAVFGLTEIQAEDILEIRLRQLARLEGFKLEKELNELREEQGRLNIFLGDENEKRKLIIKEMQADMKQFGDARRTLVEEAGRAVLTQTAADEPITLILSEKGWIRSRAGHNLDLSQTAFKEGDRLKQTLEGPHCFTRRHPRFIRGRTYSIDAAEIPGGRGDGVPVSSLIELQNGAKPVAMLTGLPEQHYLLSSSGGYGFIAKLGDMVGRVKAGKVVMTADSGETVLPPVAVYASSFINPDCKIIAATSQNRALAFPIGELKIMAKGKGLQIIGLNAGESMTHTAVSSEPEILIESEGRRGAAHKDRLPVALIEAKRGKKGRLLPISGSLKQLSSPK
Procedure: All proteins were His-tagged. N. gonorrhoeae WT gyrase (GyrA, GyrB) and topoisomerase IV (ParC, ParE) subunits as well as mutant GyrA^D90N, GyrA^A92T, GyrA^S91F, and GyrA^S91F/D95G gyrase and ParC^D86N and ParC^S88P topoisomerase IV were prepared as described previously. , N. gonorrhoeae mutant GyrA^D95G gyrase and mutant ParC^S87N and ParC^E91G topoisomerase IV were generated using a QuickChange II XL site-directed mutagenesis kit (Agilent Technologies) with custom primers for the desired mutations. Mutant N. gonorrhoeae GyrA and ParC subunits were expressed and purified as described by Ashley et al. with the following modifications to optimize protein expression and lysis: (1) GyrA^D95G was expressed for 2.5 h and ParC^S87N and ParC^E91G were expressed for 3 h before harvesting, and (2) cells were lysed by sonication using a digital sonifier (Branson). The identities of all constructs were confirmed by DNA sequencing, and all enzymes were stored at −80 °C. In all assays, N. gonorrhoeae gyrase or topoisomerase IV was used as a 1:1 GyrA:GyrB or ParC:ParE mixture, respectively, and the stated enzyme concentration reflects that of the holoenzyme (A2B2). […]

T1 sequence (P48371 whole entry D95G): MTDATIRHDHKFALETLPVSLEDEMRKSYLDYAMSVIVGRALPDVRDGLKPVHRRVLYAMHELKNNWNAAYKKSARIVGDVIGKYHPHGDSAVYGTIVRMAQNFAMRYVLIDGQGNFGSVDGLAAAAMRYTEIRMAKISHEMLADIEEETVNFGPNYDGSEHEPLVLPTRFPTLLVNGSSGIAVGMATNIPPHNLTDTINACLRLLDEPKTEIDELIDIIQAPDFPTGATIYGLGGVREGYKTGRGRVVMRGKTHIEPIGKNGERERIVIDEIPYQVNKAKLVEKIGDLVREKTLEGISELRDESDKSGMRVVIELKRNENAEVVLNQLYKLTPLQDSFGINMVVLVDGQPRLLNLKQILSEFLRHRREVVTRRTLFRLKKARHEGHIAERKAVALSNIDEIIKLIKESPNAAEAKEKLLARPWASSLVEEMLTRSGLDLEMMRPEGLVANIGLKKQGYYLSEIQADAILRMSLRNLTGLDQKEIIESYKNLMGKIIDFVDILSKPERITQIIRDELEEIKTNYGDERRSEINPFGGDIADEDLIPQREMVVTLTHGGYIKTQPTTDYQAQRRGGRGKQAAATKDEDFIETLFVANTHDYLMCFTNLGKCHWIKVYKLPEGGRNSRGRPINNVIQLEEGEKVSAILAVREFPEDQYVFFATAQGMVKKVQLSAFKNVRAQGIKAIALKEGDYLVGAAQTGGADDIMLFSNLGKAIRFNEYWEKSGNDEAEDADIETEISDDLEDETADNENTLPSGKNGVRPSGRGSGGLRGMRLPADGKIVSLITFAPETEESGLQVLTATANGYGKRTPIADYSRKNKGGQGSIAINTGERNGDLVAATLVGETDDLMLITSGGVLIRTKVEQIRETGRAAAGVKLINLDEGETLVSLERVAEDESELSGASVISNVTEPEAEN
T1 sequence (P22118 whole entry partner): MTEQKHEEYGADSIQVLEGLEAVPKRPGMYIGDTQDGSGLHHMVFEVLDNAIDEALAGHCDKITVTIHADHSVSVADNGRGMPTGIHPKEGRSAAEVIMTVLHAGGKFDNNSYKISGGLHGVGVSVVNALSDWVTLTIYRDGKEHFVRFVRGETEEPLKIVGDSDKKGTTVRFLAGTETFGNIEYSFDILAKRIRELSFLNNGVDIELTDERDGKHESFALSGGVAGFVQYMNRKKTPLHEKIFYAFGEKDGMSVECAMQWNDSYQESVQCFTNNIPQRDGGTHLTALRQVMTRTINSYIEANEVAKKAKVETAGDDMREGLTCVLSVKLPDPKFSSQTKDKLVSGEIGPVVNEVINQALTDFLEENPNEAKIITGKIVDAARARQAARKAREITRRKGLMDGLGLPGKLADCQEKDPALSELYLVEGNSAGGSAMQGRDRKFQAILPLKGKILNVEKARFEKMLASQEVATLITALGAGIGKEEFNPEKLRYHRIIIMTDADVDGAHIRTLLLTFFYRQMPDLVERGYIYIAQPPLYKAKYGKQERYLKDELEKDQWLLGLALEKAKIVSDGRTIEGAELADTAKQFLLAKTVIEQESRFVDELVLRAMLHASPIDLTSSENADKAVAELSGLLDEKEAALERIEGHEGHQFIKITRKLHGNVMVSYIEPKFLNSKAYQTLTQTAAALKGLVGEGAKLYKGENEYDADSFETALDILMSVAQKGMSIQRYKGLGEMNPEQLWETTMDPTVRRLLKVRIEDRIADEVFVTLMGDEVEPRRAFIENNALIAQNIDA

O=c1ccc2ncc(=O)n3c2n1C[C@H]3CN1CCC(NCc2cc3c(cn2)OCCC3)CC1 [gepotidacin]
IC50 ([1]; GyrA D95G gyrase, read-out: IC50, inhibition of DNA supercoiling): 2000 nM | fold lower supercoiling IC50 vs WT gyrase ([1]; GyrA D95G vs WT): ~2.6 fold | IC50 [2]: 1200 nM | effect of mutation on gepotidacin susceptibility in decatenation assays ([2]; ParC S88P vs WT): no effect
